From patent US5521160A, “Sulfuric acid esters of sugar alcohols” (Hoffmann-La Roche Inc., priority 1994, dated 1996) come the findings set out here.

Structures can show the parent of a compound that is named as a salt. Where two headings read alike, the source gives them in different places.

For assay [1], the system named is rat smooth muscle cells. Nature of the assay: Antiproliferative activity (growth inhibition of rat smooth muscle cells, relative to heparin). It counts as cell-based. Particulars: 100 μg/ml, 48 hours, relative to heparin 100 μg/ml in same experiment.
Method: The antiproliferative activity of a substance is expressed as the ri value which is a comparative value to the corresponding activity of heparin and which was determined in cell cultures as follows: rat smooth muscle cells were applied to cell culture plates in a density of 8×10^3 cells/well (medium: DMEM with 10% FCS. Cultivation at 37° C. and 5% CO2). After 4 hours the number of adhered cells was determined and the compounds to be tested (100 μg/ml, dissolved in H2 O) were added. The controls were a) cells to which test compound was not added and b) heparin (100 μg/ml). Subsequently, the cells were incubated for 48 hours and thereafter the cell count was determined once more.
The inhibition i of the cell growth, i.e. the percent reduction in the growth rate of the cells compared to the control, was calculated from these values: [formula] the growth rate μ being calculated as [formula] in which Z is the number of cells.
Finally, ri --the relative inhibitory activity--which expresses the activity of a substance (at 100 μg/ml) in comparison to the activity of heparin in the same concentration in the same experiment, was calculated: [formula]
For assay [2], the target named is T1, thrombin (Homo sapiens, UniProt P00734).
T1 construct: purchased Roche, Basle (Thrombin Reagent)
Nature of the assay: biochemical. It counts as biochemical.
Method: (§1) The blood coagulation-inhibiting activity was determined as follows:
Inhibition of Thrombin or Factor Xa in the Chromogenic Substrate Assay (Teien. et al., Thrombosis Research 10, 399-410 (1977)): The determination was effected in a Cobas-Bio centrifugal automatic spectrophotometer. The buffer solution used consisted of 50 mM Tris buffer, 180 mM NaCl, 7.5 mM EDTA Na2, 1% PEG 6000 and 0.02% Tween 80, pH 8.4. The test solution consisted of 50 μl of buffer, 30 μl of antithrombin III (1 U/ml, Kabi Diagnostica) and 20 μl of plasma which contained various concentrations of test compounds. 30 μl of sample solution and 20 μl of water with 180 μl of thrombin (1 U/ml, Thrombin Reagent Roche Basle) were added to the test cuvette in the automatic analyzer. After incubation at 37° C. for 240 seconds, 60 μl of S-2238 (H-D-Phe-Pip-Arg-NH.pNA, Kabi Diagnostica, Mondal, Sweden, 0.75 mM in water) and 20 μl of water were added. The liberation of pNA (p-nitroaniline) was followed during 60 seconds at 405 nm in 10 second intervals in comparison to water as the blank.

Assay [3] has as its target T2, Factor Xa (Bos taurus, UniProt P00743).
T2 sequence (P00743 41-180 limits assumed): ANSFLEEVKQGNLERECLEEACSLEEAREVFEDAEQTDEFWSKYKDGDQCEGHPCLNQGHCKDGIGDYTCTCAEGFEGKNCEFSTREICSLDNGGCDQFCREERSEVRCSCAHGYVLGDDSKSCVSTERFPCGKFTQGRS
Nature of the assay: Inhibition of Factor Xa in the chromogenic substrate assay (blood coagulation inhibition). It counts as biochemical.
Method: as §1
Inhibition of Thrombin or Factor Xa in the Chromogenic Substrate Assay (Teien. et al., Thrombosis Research 10, 399-410 (1977)): The determination was effected in a Cobas-Bio centrifugal automatic spectrophotometer. The buffer solution used consisted of 50 mM Tris buffer, 180 mM NaCl, 7.5 mM EDTA Na2, 1% PEG 6000 and 0.02% Tween 80, pH 8.4. The test solution consisted of 50 μl of buffer, 30 μl of antithrombin III (1 U/ml, Kabi Diagnostica) and 20 μl of plasma which contained various concentrations of test compounds.
The inhibition of Factor Xa was measured in the same manner using a solution of Factor Xa (2.8 nkat/ml) and 2 mM S-2222 (Bz-CO-Ile-Glu-Arg-NH.pNA, Kabi Diagnostica) in water in place of thrombin or S-2238.

Setting [4] is: chromogenic substrate S-2238, antithrombin III, plasma, pH 8.4, 37° C.; read-out: Anticoagulative Activity IC50 Thrombin.
Setting [5] is: chromogenic substrate S-2222, antithrombin III, plasma; read-out: Anticoagulative Activity IC50 Factor Xa.

In general, IC50 refers to the point on the concentration scale where inhibition reaches its midpoint. Turning to `O=C(Nc1ccc(OC[C@@H](OS(=O)(=O)O)[C@H](OS(=O)(=O)O)[C@@H](COS(=O)(=O)O)OS(=O)(=O)O)cc1)c1cccc(C(=O)Nc2ccc(OC[C@@H](OS(=O)(=O)O)[C@H](OS(=O)(=O)O)[C@@H](COS(=O)(=O)O)OS(=O)(=O)O)cc2)c1` [Example 12, N,N'-bis-[4-(2,3,4,5-tetra-O-sulfo-D-arabinit-1-yloxy)-phenyl]-isophthalamide octasodium salt], the “Antiproliferative Activity ri (relative inhibitory activity compared with heparin)” value in assay [1] came to 0.9. Further, the IC50 in assay [2] (setting [4]) and in assay [3] (setting [5]) was more than 795 µM in each case.

As for `O=C(NC[C@H](OS(=O)(=O)O)[C@@H](OS(=O)(=O)O)[C@H](OS(=O)(=O)O)[C@@H](COS(=O)(=O)O)OS(=O)(=O)O)c1ccc(/C=C/c2ccc(C(=O)NC[C@H](OS(=O)(=O)O)[C@@H](OS(=O)(=O)O)[C@H](OS(=O)(=O)O)[C@@H](COS(=O)(=O)O)OS(=O)(=O)O)cc2Cl)cc1` [Example 85, (E)-2-chlorostilbene-4,4'-dicarboxylic acid bis-(2,3,4,5,6-penta-O-sulfo-D-glucit-1-ylamide) decasodium salt], the “Antiproliferative Activity ri (relative inhibitory activity compared with heparin)” value in assay [1] was found to be 2.1. For the same molecule, the IC50 in assay [2] (setting [4]) and in assay [3] (setting [5]) was more than 699 µM each time.

On to `CN(C[C@H](OS(=O)(=O)O)[C@@H](OS(=O)(=O)O)[C@H](OS(=O)(=O)O)[C@@H](COS(=O)(=O)O)OS(=O)(=O)O)C(=O)c1ccc2c(c1)C(=O)c1cc(C(=O)N(C)C[C@H](OS(=O)(=O)O)[C@@H](OS(=O)(=O)O)[C@H](OS(=O)(=O)O)[C@@H](COS(=O)(=O)O)OS(=O)(=O)O)ccc1-2` [Example 37, 9-oxo-9H-fluorene-2,7-dicarboxylic acid bis-[methyl-(2,3,4,5,6-penta-O-sulfo-D-glucit-1yl)-amide] decasodium salt], for which, in assay [1], the “Antiproliferative Activity ri (relative inhibitory activity compared with heparin)” value turned out to be 0.7. Besides, the IC50 in assay [2] (setting [4]) and in assay [3] (setting [5]) was more than 703 µM throughout.

For `O=C(NC[C@H](OS(=O)(=O)O)[C@@H](OS(=O)(=O)O)[C@H](OS(=O)(=O)O)[C@@H](COS(=O)(=O)O)OS(=O)(=O)O)c1ccc(S(=O)(=O)c2ccc(C(=O)NC[C@H](OS(=O)(=O)O)[C@@H](OS(=O)(=O)O)[C@H](OS(=O)(=O)O)[C@@H](COS(=O)(=O)O)OS(=O)(=O)O)cc2)cc1` [Example 4, 4,4'-sulfonyl-dibenzoic acid bis-(2,3,4,5,6-penta-O-sulfo-D-glucit-1-ylamide) decasodium salt], in assay [1], the “Antiproliferative Activity ri (relative inhibitory activity compared with heparin)” value is reported as 0.3. Also, the IC50 in assay [2] (setting [4]) and in assay [3] (setting [5]) was more than 698 µM in each case.

Consider `O=C(NC[C@H](OS(=O)(=O)O)[C@@H](OS(=O)(=O)O)[C@H](OS(=O)(=O)O)[C@@H](COS(=O)(=O)O)OS(=O)(=O)O)c1ccc(Cc2ccc(C(=O)NC[C@H](OS(=O)(=O)O)[C@@H](OS(=O)(=O)O)[C@H](OS(=O)(=O)O)[C@@H](COS(=O)(=O)O)OS(=O)(=O)O)cc2)cc1` [Example 16, 4,4'-methylene-dibenzoic acid bis-(2,3,4,5,6-penta-O-sulfo-D-glucit-1-ylamide) decasodium salt], for which the “Antiproliferative Activity ri (relative inhibitory activity compared with heparin)” value in assay [1] amounted to 0.7. In addition, the IC50 in assay [2] (setting [4]) and in assay [3] (setting [5]) was more than 723 µM in each case.

In the case of `O=C(/C=C\C(=O)Nc1cc(COc2ccc(-c3ccccc3)cc2)cc(NC(=O)/C=C\C(=O)NC[C@H](OS(=O)(=O)O)[C@@H](OS(=O)(=O)O)[C@H](OS(=O)(=O)O)[C@@H](COS(=O)(=O)O)OS(=O)(=O)O)c1)NC[C@H](OS(=O)(=O)O)[C@@H](OS(=O)(=O)O)[C@H](OS(=O)(=O)O)[C@@H](COS(=O)(=O)O)OS(=O)(=O)O` [Example 58, (Z)-butenedioic acid (Z)-[3-biphenyl-4-yloxymethyl-5-[3-(2,3,4,5,6-penta-O-sulfo-D-glucit-1-ylcarbamoyl)-acryloylamino]-phenylamide]-(2,3,4,5,6-penta-O-sulfo-D-glucit-1-yl)-amide decasodium salt], the “Antiproliferative Activity ri (relative inhibitory activity compared with heparin)” value in assay [1] is given as 2.2. Further, the IC50 in assay [2] (setting [4]) and in assay [3] (setting [5]) was more than 620 µM in each case.

As for `O=[N+]([O-])c1cc(S(=O)(=O)c2ccc(NC[C@H](OS(=O)(=O)O)[C@@H](OS(=O)(=O)O)[C@H](OS(=O)(=O)O)[C@@H](COS(=O)(=O)O)OS(=O)(=O)O)c([N+](=O)[O-])c2)ccc1NC[C@H](OS(=O)(=O)O)[C@@H](OS(=O)(=O)O)[C@H](OS(=O)(=O)O)[C@@H](COS(=O)(=O)O)OS(=O)(=O)O` [Example 67, N,N'-bis-(2,3,4,5,6-penta-O-sulfo-D-glucit-1-yl)-2,2'-dinitro-4,4'-sulfonyldianiline decasodium salt], in assay [1], the “Antiproliferative Activity ri (relative inhibitory activity compared with heparin)” value is recorded as 1.0. In addition, the IC50 was more than 682 µM in assay [2] (read-out: Anticoagulative Activity IC50 Thrombin; chromogenic substrate S-2238, antithrombin III, plasma, pH 8.4, 37° C.) and more than 682 µM in assay [3] (read-out: Anticoagulative Activity IC50 Factor Xa; chromogenic substrate S-2222, antithrombin III, plasma).

For the molecule `O=C(Nc1ccc(OC[C@@H](OS(=O)(=O)O)[C@H](OS(=O)(=O)O)[C@H](OS(=O)(=O)O)[C@H](COS(=O)(=O)O)OS(=O)(=O)O)cc1)Nc1ccc(OC[C@@H](OS(=O)(=O)O)[C@H](OS(=O)(=O)O)[C@H](OS(=O)(=O)O)[C@H](COS(=O)(=O)O)OS(=O)(=O)O)cc1` [Example 65, 1,3-bis-[4-(2,3,4,5,6-penta-O-sulfo-D-galactit-6-yloxy)-phenyl]-urea decasodium salt], the “Antiproliferative Activity ri (relative inhibitory activity compared with heparin)” value in assay [1] is 0.8. Further, the IC50 in assay [2] (setting [4]) and in assay [3] (setting [5]) was more than 728 µM in each case.

`C[C@H](OS(=O)(=O)O)[C@H](OS(=O)(=O)O)[C@@H](OS(=O)(=O)O)[C@H](CNC(=O)c1ccc(/C=C\c2ccc(C(=O)NC[C@H](OS(=O)(=O)O)[C@H](OS(=O)(=O)O)[C@@H](OS(=O)(=O)O)[C@H](C)OS(=O)(=O)O)cc2)cc1)OS(=O)(=O)O` [Example 93, (Z)-stilbene-4,4'-dicarboxylic acid bis-(2,3,4,5,6-penta-O-sulfo-L-rhamnit-1-ylamide) octasodium salt]: the “Antiproliferative Activity ri (relative inhibitory activity compared with heparin)” value in assay [1] is on record as 1.0. For the same molecule, the IC50 in assay [2] (setting [4]) and in assay [3] (setting [5]) was more than 831 µM each time.

With `O=S(=O)(O)OC[C@@H](OS(=O)(=O)O)[C@@H](OS(=O)(=O)O)[C@H](OS(=O)(=O)O)[C@H](CNS(=O)(=O)c1cccc2c(S(=O)(=O)NC[C@H](OS(=O)(=O)O)[C@@H](OS(=O)(=O)O)[C@H](OS(=O)(=O)O)[C@@H](COS(=O)(=O)O)OS(=O)(=O)O)cccc12)OS(=O)(=O)O` [Example 11, naphthalene-1,5-disulfonic acid bis-(2,3,4,5,6-penta-O-sulfo-D-glucit-1-ylamide) decasodium salt], the “Antiproliferative Activity ri (relative inhibitory activity compared with heparin)” value in assay [1] came out at 1.0. For the same molecule, the IC50 in assay [2] (setting [4]) and in assay [3] (setting [5]) was more than 707 µM in each case.

heparin [reference compound]: the “Antiproliferative Activity ri (relative inhibitory activity compared with heparin)” value in assay [1] was 1.0. In addition, the “Anticoagulative Activity IC50 Thrombin” value in assay [2] (chromogenic substrate S-2238, antithrombin III, plasma, pH 8.4, 37° C.) is 1.9 mg/L. For the same molecule, the “Anticoagulative Activity IC50 Factor Xa” value in assay [3] (chromogenic substrate S-2222, antithrombin III, plasma) was found to be 2.7 mg/L.

Consider `O=C(NC[C@H](OS(=O)(=O)O)[C@@H](OS(=O)(=O)O)[C@H](OS(=O)(=O)O)[C@@H](COS(=O)(=O)O)OS(=O)(=O)O)c1cccc(C(=O)NC[C@H](OS(=O)(=O)O)[C@@H](OS(=O)(=O)O)[C@H](OS(=O)(=O)O)[C@@H](COS(=O)(=O)O)OS(=O)(=O)O)c1` [Example 14, N,N'-bis-(2,3,4,5,6-penta-O-sulfo-D-glucit-1-yl)-isophthalamide decasodium salt], for which the “Antiproliferative Activity ri (relative inhibitory activity compared with heparin)” value in assay [1] was determined as 0.6. For the same molecule, the IC50 in assay [2] (setting [4]) and in assay [3] (setting [5]) was more than 773 µM throughout.

`O=C(NC[C@H](OS(=O)(=O)O)[C@@H](OS(=O)(=O)O)[C@H](OS(=O)(=O)O)[C@@H](COS(=O)(=O)O)OS(=O)(=O)O)c1ccc(CCc2ccc(C(=O)NC[C@H](OS(=O)(=O)O)[C@@H](OS(=O)(=O)O)[C@H](OS(=O)(=O)O)[C@@H](COS(=O)(=O)O)OS(=O)(=O)O)cc2)cc1` [Example 10, 4,4'-ethylene-dibenzoic acid bis-(2,3,4,5,6-penta-O-sulfo-D-glucit-1-ylamide) decasodium salt]: in assay [1], the “Antiproliferative Activity ri (relative inhibitory activity compared with heparin)” value is 1.5. In addition, the IC50 in assay [2] (setting [4]) and in assay [3] (setting [5]) was more than 716 µM each time.

Turning to `CC(/C=C/C=C(\C)C(=O)NC[C@H](OS(=O)(=O)O)[C@@H](OS(=O)(=O)O)[C@H](OS(=O)(=O)O)[C@@H](COS(=O)(=O)O)OS(=O)(=O)O)=C\C=C\C=C(C)\C=C\C=C(/C)C(=O)NC[C@H](OS(=O)(=O)O)[C@@H](OS(=O)(=O)O)[C@H](OS(=O)(=O)O)[C@@H](COS(=O)(=O)O)OS(=O)(=O)O` [Example 6, (2E,4E,6E,8E,10E,12E,14E)-2,6,11,15-tetramethyl-hexadeca-2,4,6,8,10,12,14-heptaenedicarboxylic acid bis-(2,3,4,5,6-penta-O-sulfo-D-glucit-1-ylamide) decasodium salt], in assay [1], the “Antiproliferative Activity ri (relative inhibitory activity compared with heparin)” value came to 1.5. In addition, the IC50 in assay [2] (setting [4]) and in assay [3] (setting [5]) was more than 687 µM in each case.

Take `O=C(/C=C/C(=O)Nc1ccc(NC(=O)NC[C@H](OS(=O)(=O)O)[C@@H](OS(=O)(=O)O)[C@H](OS(=O)(=O)O)[C@@H](COS(=O)(=O)O)OS(=O)(=O)O)cc1)Nc1ccc(NC(=O)NC[C@H](OS(=O)(=O)O)[C@@H](OS(=O)(=O)O)[C@H](OS(=O)(=O)O)[C@@H](COS(=O)(=O)O)OS(=O)(=O)O)cc1` [Example 34, N,N'-bis-[4-[3-(2,3,4,5,6-penta-O-sulfo-D-glucit-1-yl)-ureido]-phenyl]-fumaramide decasodium salt]: the “Antiproliferative Activity ri (relative inhibitory activity compared with heparin)” value in assay [1] was 0.4. For the same molecule, the IC50 in assay [2] (pH 8.4; read-out: Anticoagulative Activity IC50 Thrombin) and in assay [3] (setting [5]) was more than 662 µM in each case.
